The test has as its system P388 leukemia ip, CD2F1 mice, survival T/C. Description: NCI In Vivo Anticancer Drug Screen. Data for tumor model P388 Leukemia (intraperitoneal) in CD2F1 (CDF1) mice. The conditions noted are these: endpoint: median survival time, higher = longer survival. An outline of the steps:
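Mice carrying the transplanted tumor received test compound or vehicle. Survival was recorded in each group, and the value is the treated-group measurement divided by that of the vehicle-treated control group.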

Setting [1] is: dose: 100.0 mg/kg/injection, schedule: Q04DX003 (ip), vehicle: saline with Tween-80.
Where [2] appears, read: dose: 200.0 mg/kg/injection, schedule: Q04DX003 (ip), vehicle: saline with Tween-80.
The mark [3] stands for this setting: dose: 400.0 mg/kg/injection, schedule: Q04DX003 (ip), vehicle: saline with Tween-80.
Where [4] appears, read: dose: 12.5 mg/kg/injection, schedule: Q01DX009 (ip), vehicle: saline.
The mark [5] stands for this setting: dose: 50.0 mg/kg/injection, schedule: Q01DX009 (ip), vehicle: Klucel (hydroxypropylcellulose) (HPC).
[6] abbreviates: dose: 100.0 mg/kg/injection, schedule: Q01DX009 (ip), vehicle: Klucel (hydroxypropylcellulose) (HPC).
Setting [7] is: dose: 60.0 mg/kg/injection, schedule: Q01DX005 (ip), vehicle: saline with Tween-80.
Where [8] appears, read: dose: 120.0 mg/kg/injection, schedule: Q01DX005 (ip), vehicle: saline with Tween-80.
Where [9] appears, read: dose: 200.0 mg/kg/injection, schedule: Q01DX009 (ip), vehicle: Klucel (hydroxypropylcellulose) (HPC).
Setting [10] is: dose: 50.0 mg/kg/injection, schedule: Q01DX009 (ip), vehicle: saline.
Setting [11] is: dose: 100.0 mg/kg/injection, schedule: Q01DX009 (ip), vehicle: saline.
Setting [12] is: dose: 50.0 mg/kg/injection, schedule: Q01DX005 (ip), vehicle: Klucel (hydroxypropylcellulose) (HPC).
The mark [13] stands for this setting: dose: 100.0 mg/kg/injection, schedule: Q01DX005 (ip), vehicle: Klucel (hydroxypropylcellulose) (HPC).

Structures are written as SMILES. “And” between values parts separate entries of the source, which are not always exact repeats. Equal values may be shown once. Toxic doses and inconclusive results are not listed.

Consider `COc1ccc(C(=O)OC2(C)CC(C)(C)N=[N+]2[O-])cc1` (configuration not stated), for which the T/C is 108 % of control (dose: 12.5 mg/kg/injection, schedule: Q01DX009 (ip), vehicle: other); 113 % of control (dose: 25.0 mg/kg/injection, schedule: Q01DX009 (ip), vehicle: other); 115 % of control (dose: 50.0 mg/kg/injection, schedule: Q01DX009 (ip), vehicle: other); 102 % of control (dose: 66.0 mg/kg/injection, schedule: Q01DX009 (ip), vehicle: other); 100 % of control (dose: 100.0 mg/kg/injection, schedule: Q01DX009 (ip), vehicle: other); 92 % of control (dose: 150.0 mg/kg/injection, schedule: Q01DX009 (ip), vehicle: other). For the same compound, the T/C (dose: 200.0 mg/kg/injection, schedule: Q01DX009 (ip), vehicle: other) was 113 % of control.

On to `CC(=O)OC(C)C[N+](C)(C)C` (configuration not stated), for which the T/C (dose: 100.0 mg/kg/injection, schedule: Q04DX002 (ip), vehicle: saline) was 102 % of control; the T/C (dose: 200.0 mg/kg/injection, schedule: Q04DX002 (ip), vehicle: saline) is 102 % of control; the T/C (dose: 400.0 mg/kg/injection, schedule: Q04DX002 (ip), vehicle: saline) is 94 % of control.

Consider `CSC(=S)/C(=C(/[O-])c1ccccc1)[n+]1cccc(C)c1`, for which the T/C is, setting by setting: (dose: 2.5 mg/kg/injection, schedule: Q04DX002 (ip), vehicle: saline with Tween-80) 99 % of control; (dose: 5.0 mg/kg/injection, schedule: Q04DX002 (ip), vehicle: saline with Tween-80) 106 % of control; (dose: 10.0 mg/kg/injection, schedule: Q04DX002 (ip), vehicle: saline with Tween-80) 106 % of control.

Regarding `Cc1[nH]cc2c1C(c1ccccc1F)=NCC(=O)N2`, the T/C was 101 % of control under setting [1], 100 % of control under setting [2] and 101 % of control under setting [3].

For `CCOc1nc(OC)c(Cc2c(OC)nc(OCC)c3c2CCCC3)c2c1CCCC2`, the T/C (dose: 47.5 mg/kg/injection, schedule: Q01DX005 (ip), vehicle: saline + Tween-80 + alcohol) is 102 % of control; the T/C (dose: 95.0 mg/kg/injection, schedule: Q01DX005 (ip), vehicle: saline + Tween-80 + alcohol) was 90 % of control; the T/C (dose: 190.0 mg/kg/injection, schedule: Q01DX005 (ip), vehicle: saline + Tween-80 + alcohol) was 87 % of control.

Regarding `c1ccc(-n2cncn2)cc1`, the T/C (dose: 60.0 mg/kg/injection, schedule: Q01DX005 (ip), vehicle: saline) was 95 % of control; the T/C (dose: 120.0 mg/kg/injection, schedule: Q01DX005 (ip), vehicle: saline) was 100 % of control; the T/C (dose: 240.0 mg/kg/injection, schedule: Q01DX005 (ip), vehicle: saline) is 101 % of control.

As to `COC(=O)c1ccccc1N=NNc1ccccc1C(N)=O`, the T/C is, setting by setting: under setting [1], 90 % of control; under setting [2], 97 % of control; under setting [3], 99 % of control.

For `C[N+](C)=c1ccc2nc3c(cc(Nc4ccccc4)c4ccccc43)oc-2c1`, the T/C is 88 % of control (dose: 60.0 mg/kg/injection, schedule: Q01DX005 (ip), vehicle: Klucel (hydroxypropylcellulose) (HPC)); 91 % of control (dose: 120.0 mg/kg/injection, schedule: Q01DX005 (ip), vehicle: Klucel (hydroxypropylcellulose) (HPC)); 103 % of control (dose: 240.0 mg/kg/injection, schedule: Q01DX005 (ip), vehicle: Klucel (hydroxypropylcellulose) (HPC)).

Turning to `C[n+]1c(-c2cccc3ccccc23)c2cc(N)ccc2c2ccccc21`, the T/C is 110 % of control (dose: 0.78 mg/kg/injection, schedule: Q01DX009 (ip), vehicle: water); 103 % of control and 113 % of control (dose: 1.56 mg/kg/injection, schedule: Q01DX009 (ip), vehicle: saline); 119 % of control (dose: 1.56 mg/kg/injection, schedule: Q01DX009 (ip), vehicle: water); 105 % of control (dose: 3.12 mg/kg/injection, schedule: Q01DX009 (ip), vehicle: saline); 112 % of control and 122 % of control (dose: 6.25 mg/kg/injection, schedule: Q01DX009 (ip), vehicle: saline); 110 % of control (dose: 12.0 mg/kg/injection, schedule: Q01DX009 (ip), vehicle: water). In addition, the T/C under setting [4] is 117 % of control and 121 % of control.

Take `CCn1c(=O)c2[nH]c(Br)nc2n(C2CC2)c1=O`: the T/C reads like this: under setting [5], 104 % of control; under setting [6], 106 % of control.

Turning to `O=[N+]([O-])c1ccc(-c2csc(=[N+]3CCCCC3)s2)cc1`, the T/C runs as follows: (dose: 6.25 mg/kg/injection, schedule: Q01DX009 (ip), vehicle: water) 106 % of control and 114 % of control; (dose: 12.5 mg/kg/injection, schedule: Q01DX009 (ip), vehicle: water) 114 % of control.

For the compound `Cc1cc(C)nc(NS(=O)(=O)c2ccc(Nc3c4ccccc4nc4ncccc34)cc2)n1`, the T/C by setting is: under setting [7], 97 % of control; under setting [8], 90 % of control; (dose: 240.0 mg/kg/injection, schedule: Q01DX005 (ip), vehicle: saline with Tween-80) 90 % of control.

With `c1ccc2c(c1)cnc1c3ccccc3nn21`, the T/C reads like this: under setting [5], 102 % of control; under setting [6], 96 % of control; under setting [9], 103 % of control.

Regarding `O=S1(=O)CCN(Cc2cccnc2)CC1`, the T/C is 94 % of control under setting [10]; 98 % of control under setting [11]; 91 % of control (dose: 200.0 mg/kg/injection, schedule: Q01DX009 (ip), vehicle: saline).

On to `CN(C)c1cc[n+](C=O)cc1`, for which the T/C (dose: 3.75 mg/kg/injection, schedule: Q01DX005 (ip), vehicle: saline) was 102 % of control; the T/C (dose: 7.5 mg/kg/injection, schedule: Q01DX005 (ip), vehicle: saline) is 95 % of control; the T/C (dose: 15.0 mg/kg/injection, schedule: Q01DX005 (ip), vehicle: saline) is 100 % of control.

On to `CCOC(=O)C1(CC(C)C)CCOC1=O` (configuration not stated), for which the T/C under setting [12] is 99 % of control; the T/C under setting [13] was 96 % of control; the T/C (dose: 200.0 mg/kg/injection, schedule: Q01DX005 (ip), vehicle: Klucel (hydroxypropylcellulose) (HPC)) was 97 % of control.

Turning to `CCCCCCCCOCC(O)CN(CCO)CCO` (configuration not stated), the T/C is 107 % of control under setting [4]; 92 % of control (dose: 25.0 mg/kg/injection, schedule: Q01DX009 (ip), vehicle: saline); 94 % of control and 97 % of control under setting [10].

With `O=C1NCCc2ccc(cc2)OC2CCNC2C(=O)N2CCCC12` (configuration not stated), the T/C reads like this: (dose: 12.5 mg/kg/injection, schedule: Q01DX005 (ip), vehicle: Klucel (hydroxypropylcellulose) (HPC)) 96 % of control; (dose: 25.0 mg/kg/injection, schedule: Q01DX005 (ip), vehicle: Klucel (hydroxypropylcellulose) (HPC)) 107 % of control; under setting [12], 100 % of control.

`CC1(COCCOCC2(C)CO2)CO1` (configuration not stated): the T/C was 118 % of control under setting [11]; 100 % of control (dose: 100.0 mg/kg/injection, schedule: Q04DX003 (ip), vehicle: saline); 113 % of control (dose: 200.0 mg/kg/injection, schedule: Q04DX003 (ip), vehicle: saline); 177 % of control (dose: 400.0 mg/kg/injection, schedule: Q01DX009 (ip), vehicle: saline sonified); 172 % of control (dose: 400.0 mg/kg/injection, schedule: Q01DX009 (ip), vehicle: saline); 109 % of control (dose: 400.0 mg/kg/injection, schedule: Q04DX003 (ip), vehicle: saline). The T/C (dose: 600.0 mg/kg/injection, schedule: Q01DX009 (ip), vehicle: saline sonified) was 200 % of control.

On to `O=C(NO)Nc1cc(Cl)cc(Cl)c1`, for which the T/C is, setting by setting: under setting [7], 114 % of control; under setting [8], 114 % of control.

Take `COc1ccc(OC)c(N2C(=O)C(=O)C(C(C)=O)C2=O)c1` (configuration not stated): the T/C under setting [5] was 107 % of control, the T/C under setting [6] was 101 % of control and the T/C under setting [9] is 105 % of control.

For the compound `CCCC(=O)N(CCC(N)=O)c1ncc([N+](=O)[O-])s1`, the T/C by setting is: (dose: 25.0 mg/kg/injection, schedule: Q01DX001 (ip), vehicle: saline) 94 % of control; (dose: 50.0 mg/kg/injection, schedule: Q01DX001 (ip), vehicle: saline) 100 % of control; (dose: 100.0 mg/kg/injection, schedule: Q01DX001 (ip), vehicle: saline) 100 % of control.

As to `COc1ncnc2nc(Cl)[nH]c12`, the T/C reads like this: under setting [12], 100 % of control; under setting [13], 102 % of control.
